Measured values published in patent US20010046687A1, “Method for the enhancement of luminescence intensity from a reaction between adenosine triphosphate (ATP) and a luciferase/luciferin reactant system” (priority 2000, published 2001).

Molecular target: T1, luciferase (Photinus pyralis, UniProt P08659)
T1 construct: purchased Analytical Luminescent Laboratories (ALL), Sparks, Maryland #2005
Experiment: luminescence from the reaction between ATP and a luciferase/luciferin reactant system loaded on reagent discs
Assay type: biochemical
Excerpt: FIG. 11 is a plot of relative luminescent intensity for reactant mixtures prepared with (♦) and without (▪) trehalose in the reactant loading solution for use with the device of FIG. 1.
FIG. 12 is a plot of luminescent intensity as a function of the concentration of trehalose in the reactant solution for use with the device of FIG. 1.
As discussed above, the inherent chemical and mechanical stability of the polymeric material is ideally suited for use as a medium on which to load the chemiluminescent reagents for the practice of the present invention. A number of commercial enterprises market luciferin-luciferase reagent kits for use in chemiluminescent reaction assays. One that the inventors have found to be particularly well suited for the practice of the present invention is the “Firelight®” luciferin-luciferase reagent kit provided by Analytical Luminescent Laboratories (ALL) of Sparks, Maryland. […] This provides for a greater intensity of luminescence, and faster reaction kinetics.
In the preparation of the reagent discs 48, the reactant concentrate is loaded, preferably drop-wise, onto the Merocel® CF50, obtained in pre-sterilized sheets. The coated sheets are then dried at ambient temperatures under a vacuum, and the reagent discs are cut from the sheets in an appropriate size and shape. Alternatively, discs may be cut first and then loaded with appropriate reagent solution. When loaded in such fashion with the reagent mixture, reagent discs, approximately 6 mm in diameter and approximately 1.5 mm in height, carry approximately 0.5 mg of the dried reactant mixture.
It is recognized in the prior art that trehalose will stabilize delicate materials while they are freeze-dried. Freeze drying as a technique was devised as being the only way certain sensitive materials can be handled. Ordinary drying at ambient or elevated temperature and at atmospheric or reduced pressure causes irreversible degradation of very many such substances, so much so that it has been accepted that sensitive proteins must not be dried at ambient temperature. […]

T1 sequence (P08659 whole entry): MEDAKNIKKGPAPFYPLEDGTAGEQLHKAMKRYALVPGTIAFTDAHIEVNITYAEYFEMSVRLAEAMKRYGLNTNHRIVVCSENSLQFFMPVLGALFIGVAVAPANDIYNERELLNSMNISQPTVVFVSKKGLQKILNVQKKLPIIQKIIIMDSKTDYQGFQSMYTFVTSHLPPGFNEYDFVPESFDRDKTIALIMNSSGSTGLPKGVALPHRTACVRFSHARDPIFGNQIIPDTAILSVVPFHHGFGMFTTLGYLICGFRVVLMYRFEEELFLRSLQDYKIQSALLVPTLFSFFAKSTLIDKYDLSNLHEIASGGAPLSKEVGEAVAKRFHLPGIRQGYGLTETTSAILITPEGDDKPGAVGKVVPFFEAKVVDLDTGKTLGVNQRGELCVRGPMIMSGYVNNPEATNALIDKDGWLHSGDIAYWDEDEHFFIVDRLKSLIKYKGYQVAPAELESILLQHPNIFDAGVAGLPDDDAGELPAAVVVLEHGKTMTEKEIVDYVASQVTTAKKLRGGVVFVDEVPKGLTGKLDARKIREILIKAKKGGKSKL

OC[C@H]1O[C@H](O[C@H]2O[C@H](CO)[C@@H](O)[C@H](O)[C@H]2O)[C@H](O)[C@@H](O)[C@@H]1O [trehalose, a-D-glucopyranosyl-a-D-glucopyranoside]
observed luminescent intensities versus the same loading of reagents without the trehalose (6 mm×1.5 mm reagent disc, total loading approximately 4 mg including trehalose, FIG. 12): more than twice
stabilization effect on the chemiluminescent reactant mixture (reactant mixtures prepared with and without trehalose in the loading solution, FIG. 11): measurable stabilization effect
biochemical activity of the luciferase component of the reagent mixture (trehalose added to the loading solution at levels approaching its saturation solubility): up to a doubling, or more
